Measurements from PubChem BioAssay (NCI).
“And” between values parts separate entries of the source, which are not always exact repeats. Equal entries are not always repeated.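 Interpolation was linear, between the two tested concentrations surrounding the appropriate level; five concentrations were tested over 48 hours in 96-well plates. GI50: concentration for 50% inhibition of growth. TGI: total growth inhibition.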

System: MDA-MB-468 breast
Experiment: NCI-60 cell line screen, 48 h

Structure (SMILES) | GI50 | TGI [µM]
CCN(CC)c1ccc(/C=C/C2=[N+](C)c3ccccc3C2(C)C)c(C)c1 | < 0.019 µM | 0.181
O=C1/C(=C/c2ccc([N+](=O)[O-])cc2)COc2ccc(O)cc21 | 2.23 µM | 7.6
Clc1ccc2c(c1)N(c1ncnc3ccc(-c4cnc5[nH]ncc5c4)cc13)CC2 | 0.217 µM | 1.47
c1ccc(-c2nc(N3CCCNCC3)c3nc(-c4ccccc4)oc3n2)cc1 | 1.72 µM | 3.37
COc1cccc2c(=O)c3c(sc12)c(NCCCNCCO)nc1ccccc13 | 1.53 µM | 3.13
COc1cc2nc(-c3ccc(C(F)(F)F)cc3)cc(OCCCN3CCCC3)c2cc1OC | 1.09 µM | 3.72
Cc1ccc(-n2nc(C(C)(C)C)cc2NC(=O)NCc2cc(F)ccc2Oc2ccc3c(cnn3CCO)c2)cc1 | 6.55 µM and 3.58 µM | > 65.9
Clc1nncc2sc(-c3ccccc3)nc12 | 14.4 µM | 69.5
[2H]c1nc(=Nc2cc(NC(=O)C=C)c(N(C)CCN(C)C)cc2OC)[nH]c(-c2cn(C([2H])([2H])[2H])c3ccccc23)c1[2H] | 0.0288 µM | 0.957
Nc1cc(-c2ccc(Cl)cc2)nn1-c1nnc(/C=C/c2ccco2)c(=O)[nH]1 | 3.08 µM | 22.2
COc1ccc(-c2cnoc2-c2cc(OC)c3c(c2)OCCO3)cc1 | 0.0296 µM | 1.03
c1cnn2ncc(-c3ccnc(Nc4ccc5c(c4)OCCO5)n3)c2c1 | 0.0594 µM | 0.18
COc1cccc(COc2cc(-n3cnc4ccccc43)sc2C(N)=O)c1 | 0.717 µM | 6.17
CC(C)[O-].CC(C)[O-].CN(CCN(C)Cc1cc(F)cc(F)c1[O-])Cc1cc(F)cc(F)c1[O-].[Ti+4] | 0.542 µM | 2.88
COc1ccc(C(=O)c2nc3ccccc3n2CC(=O)c2ccc(Cl)cc2)cc1 | 2.08 µM | 11.5
O=C(/C=C/c1cccc(O)c1)c1cccc(-n2cc(-c3ccc4ccccc4c3)[nH]c2=O)c1 | 2.86 µM | 12.8
CN(C)S(=O)(=O)c1oc(-c2ccccc2)nc1C#N | 12.3 µM | 32.9
Fc1ccc2nc(-c3cc(-c4ccc5c(c4)OCO5)n[nH]3)[nH]c2c1 | 3.58 µM | > 80.8
COc1ccc(Nc2nccc(N3CCN(c4c5ccc(Cl)cc5nc5ccc(OC)cc45)CC3)n2)cc1 | 2.69 µM | 23
CC(C)(C)c1ccc(C(=O)Nc2sc3c(c2C(N)=O)CCC(O)C3)cc1 (centres undefined) | 3.01 µM | 12.6
COc1ccc(C2=C(N3CCc4ccccc43)C(=O)NC2=O)cc1 | 18 µM | > 25
CC(C)Oc1ccc(C(=O)Cn2ccnc2)cc1-n1c(CN2CCN(C(=O)COc3ccc(Cl)cc3)CC2)nc2ccccc2c1=O | 9.95 µM | 35.9
